Conditions: 283.15 K, Liquid, Vibrating tube method

CCCCC(=O)OCC(COC(=O)CCCC)(COC(=O)CCCC)COC(=O)CCCC [pentaerythritol tetrapentanoate]
Conditions	mass density [kg/m3]
5629.7 kPa	1030.4
5659.1 kPa	1030.3
5688.1 kPa	1030.4
5723.9 kPa	1030.4
5754.6 kPa	1030.5
5779.1 kPa	1030.6
5803 kPa	1030.5
5832 kPa	1030.5
5856.1 kPa	1030.5
5881 kPa	1030.5
5906.4 kPa	1030.5
5936.8 kPa	1030.5
5961.9 kPa	1030.6
5987.7 kPa	1030.6
6018.4 kPa	1030.5
6044.4 kPa	1030.6
6070.3 kPa	1030.6
6097.3 kPa	1030.6
6128.9 kPa	1030.6
6155.9 kPa	1030.8
6188.9 kPa	1030.7
6217.1 kPa	1030.7
6245.2 kPa	1030.6
6273.6 kPa	1030.7
6301.9 kPa	1030.7
6336.3 kPa	1030.8
6365.5 kPa	1030.8
6395.6 kPa	1030.8
6431.7 kPa	1030.9
6462.7 kPa	1030.8
6491.7 kPa	1030.9
6519.4 kPa	1030.9
6542.3 kPa	1030.9
6565.5 kPa	1031
6593.5 kPa	1031.1
6616.8 kPa	1031
6640.3 kPa	1031
6668.5 kPa	1031
6692.7 kPa	1031
6717.5 kPa	1031.1
6741.9 kPa	1031
6771.1 kPa	1031.1
6796.3 kPa	1031.1
6820.7 kPa	1031
6850.6 kPa	1031
6876.8 kPa	1031.1
6902.9 kPa	1031.1
6929.7 kPa	1031.2
6961.3 kPa	1031.2
6989.3 kPa	1031.2
7017.1 kPa	1031.2
7043.5 kPa	1031.2
7061.5 kPa	1031.2
7079.3 kPa	1031.1
7097.4 kPa	1031.2
7118.7 kPa	1031.2
7234.2 kPa	1031.4
7256.3 kPa	1031.3
7276 kPa	1031.3
7295 kPa	1031.3
7315.5 kPa	1031.4
7334.8 kPa	1031.4
7354.5 kPa	1031.4
7377.5 kPa	1031.5
7396.8 kPa	1031.4
7420.6 kPa	1031.4
7440.5 kPa	1031.5
7460.5 kPa	1031.4
7480.2 kPa	1031.4
7504.4 kPa	1031.5
7525.1 kPa	1031.4
7592.3 kPa	1031.6
7634.1 kPa	1031.5
7655.5 kPa	1031.6
7680.7 kPa	1031.4
7702.1 kPa	1031.7
7723.5 kPa	1031.5
7745.1 kPa	1031.6
7771 kPa	1031.6
7792.7 kPa	1031.7
7814.7 kPa	1031.6
7836.8 kPa	1031.7
7863.9 kPa	1031.6
7886.1 kPa	1031.7
7909.2 kPa	1031.7
8005.6 kPa	1031.7
8079.8 kPa	1031.9
8132.6 kPa	1031.8
8156.2 kPa	1031.8
8209.7 kPa	1031.8
8234 kPa	1031.8
8258.7 kPa	1031.9
8283.5 kPa	1031.9
8312.9 kPa	1031.9
8337.9 kPa	1031.8
8363.2 kPa	1031.9
8393.6 kPa	1032
8418.8 kPa	1032.2
8444.3 kPa	1031.9
8474.7 kPa	1032
8501.2 kPa	1032.1
8527.8 kPa	1032
8554.5 kPa	1032
8586.3 kPa	1032.1
8612.5 kPa	1032
8644.9 kPa	1032.2
8671.8 kPa	1032.2
8698.7 kPa	1032.2
8726 kPa	1032.1
8759.1 kPa	1032
8787 kPa	1032.2
8815 kPa	1032.2
8848.6 kPa	1032.3
8877 kPa	1032.2
8906.3 kPa	1032.3
8934.4 kPa	1032.3
8969.3 kPa	1032.3
8998.4 kPa	1032.4
9027.7 kPa	1032.3
9092.4 kPa	1032.4
9158.9 kPa	1032.3
9189.8 kPa	1032.4
9220.8 kPa	1032.6
9257.3 kPa	1032.5
9288.4 kPa	1032.5
9320.3 kPa	1032.4
9599.3 kPa	1032.6
9632.7 kPa	1032.7
9666.3 kPa	1032.8
9707.5 kPa	1032.7
9743 kPa	1032.7
9779.3 kPa	1032.7
9813.6 kPa	1032.9
9848.6 kPa	1032.9
9891.1 kPa	1032.8
9926.8 kPa	1032.8
9963 kPa	1032.8
10006 kPa	1032.8
10044 kPa	1032.9
10125 kPa	1032.9
10200 kPa	1033.1
10248 kPa	1033
10286 kPa	1033
10324 kPa	1033.1
10363 kPa	1033
10410 kPa	1033.1
10449 kPa	1033.2
10489 kPa	1033.1
10537 kPa	1033.2
10577 kPa	1033.2
10619 kPa	1033.3
10668 kPa	1033.3
10710 kPa	1033.4
10753 kPa	1033.3
10805 kPa	1033.3
10848 kPa	1033.4
10894 kPa	1033.3
10948 kPa	1033.3
10990 kPa	1033.4
11025 kPa	1033.4
11059 kPa	1033.4
11099 kPa	1033.5
11132 kPa	1033.6
11173 kPa	1033.5
11207 kPa	1033.7
11241 kPa	1033.5
11283 kPa	1033.7
11318 kPa	1033.6
11354 kPa	1033.6
11389 kPa	1033.7
11432 kPa	1033.7
11468 kPa	1033.7
11505 kPa	1033.8
11549 kPa	1033.8
11586 kPa	1033.7
11623 kPa	1033.9
11661 kPa	1033.8
11706 kPa	1034
11743 kPa	1033.8
11782 kPa	1033.9
11828 kPa	1034
11867 kPa	1033.9
11906 kPa	1033.9
11992 kPa	1034.1
12032 kPa	1034
12080 kPa	1034.1
12120 kPa	1034.1
12161 kPa	1034.1
12211 kPa	1034.3
12253 kPa	1034.1
12295 kPa	1034
12348 kPa	1034.2
12392 kPa	1034.2
12436 kPa	1034.2
12474 kPa	1034.3
12515 kPa	1034.4
12549 kPa	1034.3
12589 kPa	1034.4
12624 kPa	1034.4
12659 kPa	1034.5
12695 kPa	1034.5
12739 kPa	1034.4
12775 kPa	1034.3
12815 kPa	1034.6
12841 kPa	1034.5
12867 kPa	1034.5
12897 kPa	1034.5
12922 kPa	1034.5
12949 kPa	1034.5
12974 kPa	1034.6
13005 kPa	1034.5
13031 kPa	1034.6
13058 kPa	1034.5
13089 kPa	1034.5
13115 kPa	1034.7
13142 kPa	1034.6
13174 kPa	1034.6
13203 kPa	1034.7
13230 kPa	1034.9
13257 kPa	1034.7
13285 kPa	1034.8
13317 kPa	1034.8
13344 kPa	1034.8
13377 kPa	1034.8
13404 kPa	1034.8
13432 kPa	1034.8
13460 kPa	1034.9
13493 kPa	1034.9
13521 kPa	1034.9
13551 kPa	1034.9
13580 kPa	1035
13615 kPa	1034.9
13643 kPa	1034.9
13672 kPa	1035.1
13701 kPa	1035
13736 kPa	1035
13764 kPa	1035.1
13794 kPa	1035
13829 kPa	1035.1
13858 kPa	1035.1
13893 kPa	1035.1
13923 kPa	1035.1
13954 kPa	1035.2
13984 kPa	1035.2
14021 kPa	1035.1
14051 kPa	1035.3
14082 kPa	1035.2
14118 kPa	1035.2
14148 kPa	1035.3
14186 kPa	1035.3
14216 kPa	1035.4
14248 kPa	1035.3
14279 kPa	1035.4
14317 kPa	1035.3
14348 kPa	1035.4
14380 kPa	1035.4
14419 kPa	1035.5
14451 kPa	1035.4
14490 kPa	1035.4
14522 kPa	1035.5
14555 kPa	1035.4
14588 kPa	1035.5
14628 kPa	1035.4
14660 kPa	1035.5
14694 kPa	1035.6
14735 kPa	1035.6
14768 kPa	1035.7
14808 kPa	1035.6
14842 kPa	1035.6
14877 kPa	1035.7
14912 kPa	1035.6
14954 kPa	1035.8
14989 kPa	1035.5
15024 kPa	1035.7
15066 kPa	1035.6
15101 kPa	1035.7
15137 kPa	1035.8
15180 kPa	1035.8
15216 kPa	1035.8
15252 kPa	1035.9
15295 kPa	1036
15333 kPa	1035.8
15369 kPa	1036
15414 kPa	1036.1
15451 kPa	1036
15488 kPa	1036
15525 kPa	1036
15571 kPa	1036
15609 kPa	1036.1
15648 kPa	1036
15694 kPa	1036.2
15732 kPa	1036.1
15772 kPa	1036.1
15819 kPa	1036.1
15859 kPa	1036.1
15899 kPa	1036.2
15938 kPa	1036.2
15986 kPa	1036.2
16026 kPa	1036.4
16067 kPa	1036.3
16116 kPa	1036.3
16157 kPa	1036.3
16199 kPa	1036.4
16241 kPa	1036.4
16291 kPa	1036.5
16333 kPa	1036.4
16376 kPa	1036.5
16421 kPa	1036.5
16472 kPa	1036.6
16515 kPa	1036.6
16559 kPa	1036.5
16611 kPa	1036.4
16655 kPa	1036.6
16699 kPa	1036.7
16753 kPa	1036.8
16798 kPa	1036.7
16844 kPa	1036.7
16900 kPa	1036.7
16949 kPa	1036.8
17000 kPa	1036.7
17050 kPa	1036.9

Source: the NIST ThermoML archive (doi:10.1021/je060271a)
